Test results reported in US20050137135A1 (priority 2002, published 2005).
Entries after “also recorded” stand apart in the source; their conditions may differ.

Key:
[1] = system: INS-1 cells (clone 832/13); test: Insulin release from INS-1 (832/13) cells; assay type: cell-based; conditions: 10 nM GIP, 60 minutes, n=3
Description: (§1) Cell passages 45-60 were used.

[2] = system: caspase-3 activity in INS-1 (832/13) cells; test: Caspase-3 activity induced by glucose deprivation; assay type: cell-based; conditions: 6 h; 100 nM GIP, 10 µM forskolin
Method: (§2) INS-1 cells (clone 832/13) seeded into 6-well plates were serum starved for 12-24 h and subjected to glucose deprivation (RPMI with 0.1% BSA) or treatment with 2 mM streptozotocin (STZ). […] Following treatment, caspase-3 activity was determined after 2, 6, or 24 h according to the manufacturers' protocol (Molecular Probes, Eugene, Oreg., USA). Caspase-3 activity/well was corrected for total protein content using the BCA protein assay (Pierce, Roxford, II, USA).

[3] = system: INS-1 (832/13) cells; test: Glucose dependent β-cell proliferation (CYQUANT cell quantification); assay type: cell-based
Method: as §1
Cells were seeded into 96-well plates (5×10^4 cells/well) prior to experimentation. […] Thereafter, cells were washed with KRBH (115 mM NaCl, 4.7 mM KCl, 1.2 mM KH2PO4, 10 mM NaHCO3, 1.28 mM CaCl2, 1.2 mM MgSO4 containing 10 mM HEPES and 0.1% bovine serum albumin, pH 7.4) and frozen at −70° C. until assayed. Cells were quantified using the CYQUANT™ assay system (Molecular Probes, Eugene, Oreg., USA) according to the manufacturers' protocol. Final cell numbers were always greater than the initial number plated in assessing cellular proliferation.

[4] = in vivo; cited from earlier work
[5] = system: caspase-3 activity in INS-1 (832/13) cells; test: Caspase-3 activity induced by streptozotocin (STZ); assay type: cell-based; conditions: added 10 minutes prior to and during a 30 minute STZ exposure
Method: as §2

[6] = system: INS-1 (832/13) cells; test: Cell survival during glucose deprivation (CYQUANT); assay type: cell-based
Method: as §1
Cells were seeded into 96-well plates (5×10^4 cells/well) prior to experimentation. […] Cells were quantified using the CYQUANT™ assay system (Molecular Probes, Eugene, Oreg., USA) according to the manufacturers' protocol.
Cell survival was assessed in the presence of prolonged glucose deprivation.

[7] = target: T1, rat pancreatic islet (wild type) GIP-receptor stably expressed on CHO-K1 cells (rat) (UniProt P43219); test: competition with 125I-GIP on intact CHO-K1 cells expressing rat GIP receptor
T1 sequence (looked up): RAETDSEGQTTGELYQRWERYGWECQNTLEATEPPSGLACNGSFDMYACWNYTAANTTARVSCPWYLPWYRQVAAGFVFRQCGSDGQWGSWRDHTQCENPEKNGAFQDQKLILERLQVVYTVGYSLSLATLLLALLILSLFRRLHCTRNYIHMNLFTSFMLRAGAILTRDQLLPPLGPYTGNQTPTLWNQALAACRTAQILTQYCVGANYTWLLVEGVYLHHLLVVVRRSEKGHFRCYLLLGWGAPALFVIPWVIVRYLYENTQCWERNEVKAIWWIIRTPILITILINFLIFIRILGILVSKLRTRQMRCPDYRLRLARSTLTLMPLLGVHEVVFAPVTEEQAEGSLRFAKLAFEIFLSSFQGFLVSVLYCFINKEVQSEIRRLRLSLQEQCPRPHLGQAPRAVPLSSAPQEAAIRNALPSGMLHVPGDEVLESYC

[8] = target: T1, rat pancreatic islet (wild type) GIP-receptor stably expressed on CHO-K1 cells (rat); test: displacement of 125I-GIP from intact CHO-K1 cells expressing rat GIP receptor, 10 µM peptide
[9] = target: T1, rat pancreatic islet (wild type) GIP-receptor stably expressed on CHO-K1 cells (rat); test: cell-based or functional assay

Sequence of GIP 15-42OH (peptide) (P09681 66-93): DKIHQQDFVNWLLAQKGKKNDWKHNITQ

IC50 [7]	% Displacement at 10 µM [8]	cAMP Production (Fold Basal) at 10 µM [9]	cAMP Production (Fold Basal) at 20 µM [9]	Compound	5.5 mM glucose stimulated insulin secretion [1]	0 mM glucose induced caspase-3 activity [2]	potentiation of glucose dependent β-cell proliferation ([3]; 11 mM glucose)	cell proliferation, % of growth in the presence of 5.5 mM glucose ([3]; 11 mM glucose, 100 nM, FIG. 15A)	cell growth, % of that measured in the presence of 5.5 mM glucose ([3]; separate experiment, 100 nM, n=4)	biological half-life [4]	STZ induced caspase-3 activity [5]	effect on cell survival during glucose deprivation ([6]; 0 mM glucose)	protection against wortmannin-induced cell loss ([6]; n=3, p<0.05)
				CC[C@H](C)[C@H](NC(=O)[C@H](CO)NC(=O)[C@H](Cc1ccc(O)cc1)NC(=O)[C@H](CC(=O)O)NC(=O)[C@H](CO)NC(=O)[C@@H](NC(=O)[C@H](Cc1ccccc1)NC(=O)[C@@H](NC(=O)CNC(=O)[C@H](CCC(=O)O)NC(=O)[C@H](C)NC(=O)[C@@H](N)Cc1ccc(O)cc1)[C@@H](C)O)[C@@H](C)CC)C(=O)N[C@@H](C)C(=O)N[C@@H](CCSC)C(=O)N[C@@H](CC(=O)O)C(=O)N[C@@H](CCCCN)C(=O)N[C@H](C(=O)N[C@@H](Cc1c[nH]cn1)C(=O)N[C@@H](CCC(N)=O)C(=O)N[C@@H](CCC(N)=O)C(=O)N[C@@H](CC(=O)O)C(=O)N[C@@H](Cc1ccccc1)C(=O)N[C@H](C(=O)N[C@@H](CC(N)=O)C(=O)N[C@@H](Cc1c[nH]c2ccccc12)C(=O)N[C@@H](CC(C)C)C(=O)N[C@@H](CC(C)C)C(=O)N[C@@H](C)C(=O)N[C@@H](CCC(N)=O)C(=O)N[C@@H](CCCCN)C(=O)NCC(=O)N[C@@H](CCCCN)C(=O)N[C@@H](CCCCN)C(=O)N[C@@H](CC(N)=O)C(=O)N[C@@H](CC(=O)O)C(=O)N[C@@H](Cc1c[nH]c2ccccc12)C(=O)N[C@@H](CCCCN)C(=O)N[C@@H](Cc1c[nH]cn1)C(=O)N[C@@H](CC(N)=O)C(=O)N[C@H](C(=O)N[C@H](C(=O)N[C@@H](CCC(N)=O)C(=O)O)[C@@H](C)O)[C@@H](C)CC)C(C)C)[C@@H](C)CC [GIP, glucose-dependent insulinotropic polypeptide]	2.44±0.29 % total insulin secreted	completely reversed; also recorded: ablates	potentiates 11 mM glucose induced cell growth	158±16%	131±7%	~2 min	protect against the pro-apoptotic (caspase-3 activating) effects of STZ completely; also recorded: ablates	promotes INS-1 (832/13) cell survival during glucose deprivation in a concentration-dependent manner	partially protected; also recorded: partially reversed
				CC(=O)N[C@@H](CC(=O)O)C(=O)N[C@@H](CCC(=O)O)C(=O)N[C@H](C(=O)N[C@H](C=O)CC(=O)O)C(C)C [Ac-DEVD-CHO]		completely blocked low glucose activation							
1270 nM	83.3%	1.02 fold basal	1.01 fold basal	GIP 15-42OH (peptide)									
